Data reported in PubChem BioAssay AID2823 (Broad Institute, 2010).
Calls of active or inactive are those of the source. How the calls were made is not given here.

target: RanGTP-importin-beta complex (human Ran / KPNB1); assay: Ran–importin-beta interaction inhibitors, confirmation, biochemical, FRET, CFP/YFP, cell-free homogeneous (AID 2823); settings: CFP-Ran/YFP-importin-beta FRET ratio

Row | SMILES | IC50
1 | Cc1ccc(-c2ccc(/C=C(\C#N)C(N)=S)n2C)cc1 | > 50 µM (inactive)
2 | CC1=Nc2ccccc2/C1=C\c1sc(Nc2ccc(C)cc2)nc1O | > 50 µM (inactive)
3 | Cc1nc2nc(CCNS(=O)(=O)c3ccc(Cl)cc3)cn2nc1C | 41.2 µM
4 | CCN1CCc2c(sc(N)c2C#N)C1 | 16.5 µM
5 | CCN1CCc2c(sc(NC(=O)Cc3ccccc3)c2C(=O)OC)C1 | > 50 µM (inactive)
6 | CCc1cc(=O)oc2c(CN3CCN(C)CC3)c(O)c(Cl)cc12 | 27.1 µM
7 | Oc1ccccc1/C=N/Nc1cc(N2CCCC2)nc(N2CCCC2)n1 | > 50 µM (inactive)
8 | O=c1[nH]c(-[n+]2ccc3ccccc3c2)c(/C=N/N=C(\[O-])c2ccccc2)s1 | > 50 µM (inactive)
9 | O=C(c1ccc(F)cc1)c1cc2ccc(O)cc2oc1=O | 11.4 µM
10 | Cc1ccc2nc(N3CCN(Cc4nnnn4Cc4ccccc4)CC3)c(C#N)cc2c1 | 23 µM
11 | Cc1ccc(N2CCN(c3ccc(C)cc3)C2c2ccccn2)cc1 | > 50 µM (inactive)
12 | COc1ccc(C(=O)Oc2c(CN3CCOCC3)cc(Cl)c3cccnc23)cc1 | > 50 µM (inactive)
13 | COc1ccc(C(=O)/C=C(\C)NCc2ccc3c(c2)OCO3)cc1 | > 50 µM (inactive)
14 | CCOC(=O)/C(C#N)=C\c1ccc(N2CCN(C)CC2)cc1 | 15 µM
15 | Cn1c2ccccc2c(=O)c2ccc(F)cc21 | 12.6 µM
16 | CC(c1nc2ccccc2n1Cc1ccccc1)N1CCCCC1 (stereo not given) | > 50 µM (inactive)
17 | O=C(Cn1c(=O)c2cccn2c2cccnc21)NCCCN1CCN(c2ccc(F)cc2)CC1 | > 50 µM (inactive)
18 | O=C(NNc1c2ccccc2nc2ccccc12)c1cc2ccccc2cc1O | > 50 µM (inactive)
19 | CCOC(=O)C1=C(C)NC2=C(C(=O)C(C(=O)OCC)C(c3cccc(OC)c3)C2)C1c1ccccn1 (stereo not given) | 22.2 µM
20 | CC(C)OC(=O)c1nnn(-c2nonc2N)c1CN1CCCCCC1 | > 50 µM (inactive)
21 | CCOC(=O)c1sc(NC(=O)CSc2nc(C)cc(C)n2)c(C#N)c1C | > 50 µM (inactive)
22 | COC(=O)[C@@H]1[C@H]2C[C@H]3c4[nH]c5ccccc5c4CCN3C[C@@H]2CC[C@@H]1O | > 50 µM (inactive)
23 | COc1ccccc1Nc1c2ccccc2nc2ccccc12 | > 50 µM (inactive)
24 | O=C(NNc1c2ccccc2nc2ccccc12)c1ccc(Cl)cc1 | > 50 µM (inactive)
25 | COc1ccccc1N1CCN(C(=O)/C=C/c2ccc(C)cc2)CC1 | > 50 µM (inactive)

Row | SMILES | IC50
26 | CCOc1ccc(Nc2c3ccccc3nc3ccccc23)cc1 | > 50 µM (inactive)
27 | COC(=O)C1=CN(Cc2ccc(OC)c(OC)c2)C=C(C(=O)OC)C1c1ccccc1F | 9.77 µM
28 | Cc1nc2[nH]c(=O)c3c(n2n1)NC1=C(C(=O)CC(C)(C)C1)C3c1ccc(F)cc1 (stereo not given) | 2.73 µM
29 | CC1CCCCN1C(=O)Cn1c(=O)oc2cc(S(=O)(=O)N3CCCC3)ccc21 (stereo not given) | > 50 µM (inactive)
30 | O=c1cc(CN2CCN(Cc3ccccc3)CC2)c2ccc(O)cc2o1 | 11.1 µM
31 | Cc1ccc(OCC(=O)NNc2c3ccccc3nc3ccccc23)cc1 | > 50 µM (inactive)
32 | CCCSc1nnc(-c2c[nH]c3ccccc23)n1CC | > 50 µM (inactive)
33 | COc1ccc(N2Cc3ccccc3/C2=N\C(=O)Nc2ccccc2)cc1 | > 50 µM (inactive)
34 | N#CCCN(C(=O)Nc1ccc(Cl)cc1)c1ccccc1 | > 50 µM (inactive)
35 | COc1cc(SC)ccc1C(=O)Nc1nc(C)cs1 | > 50 µM (inactive)
36 | Cc1[nH]c2ccccc2c1/C=C/c1nc2ccccc2c(=O)n1CCO | > 50 µM (inactive)
37 | COC(=O)Nc1ccc(NC(C)=O)cc1 | > 50 µM (inactive)
38 | CC(C)(C)Nc1c2ccccc2nc2ccccc12 | > 50 µM (inactive)
39 | CC(=O)Nc1cc(C(=O)N(C)Cc2ccco2)ccc1Sc1ccc(Cl)cc1 | > 50 µM (inactive)
40 | CCOC(=O)c1sc(N/N=C/c2cc(Br)c(O)c(OC)c2)nc1C | > 50 µM (inactive)
41 | CCOC(=O)CC(=O)CSc1nc2c(cc1C#N)CCC2 | 29.2 µM
42 | c1ccc(-n2nnnc2-c2cnc(-c3cccnc3)nc2-c2cccs2)cc1 | > 50 µM (inactive)
43 | CCc1cc(=O)oc2c(CNCc3ccc(OC)cc3OC)c(O)c(Cl)cc12 | 14.4 µM
44 | COc1ccccc1CNC(=O)Cn1ccsc1=N | > 50 µM (inactive)
45 | O=C(CN1C(=O)NC2(CCCC2)C1=O)Nc1nc2c(F)cc(F)cc2s1 | > 50 µM (inactive)
46 | CC1CC1c1ccc(/C=C(\C#N)C(=O)Nc2ccc(Cl)cc2)o1 (stereo not given) | > 50 µM (inactive)
47 | COc1ccc(S(=O)Cc2ccc(C(=O)NC3CC3)o2)cc1 (stereo not given) | > 50 µM (inactive)
48 | Cc1cc(C2C(C#N)=C(N)SC(N)=C2C#N)c(C)s1 | > 50 µM (inactive)
49 | Cc1ccccc1N=Cc1cc2c(cc1O)OC(N)=C(C#N)C2c1ccccc1 (stereo not given) | > 50 µM (inactive)
50 | O=c1cc(CN2CCN(S(=O)(=O)c3ccc4c(c3)OCCO4)CC2)c2ccc(O)cc2o1 | 10.9 µM

Row | SMILES | IC50
51 | Cc1c(Cl)c([N+](=O)[O-])nn1CCCC(=O)Nc1sc2c(c1C(N)=O)CCC(C)C2 (stereo not given) | > 50 µM (inactive)
52 | CC(C)SCC(=O)Nc1ncc2c(n1)-c1ccccc1CC2 | 10.1 µM
53 | CCN(/N=C/C=C/c1ccccc1)c1cc(=O)n(C)c(=O)[nH]1 | > 50 µM (inactive)
54 | Cc1nn(C)c(Oc2ccc(Cl)cc2)c1C(=O)O | > 50 µM (inactive)
55 | CCn1nc(NC(=O)c2ccccn2)c2cc3cccc(C)c3nc21 | 2.68 µM
56 | C/C(=C\C(=O)C(F)(F)F)Nc1ccc(C(F)(F)F)cc1 | > 50 µM (inactive)
57 | CC(NCc1cccs1)C(=O)NC1CCCCC1 (stereo not given) | > 50 µM (inactive)
58 | Cc1cc(C)c(C#N)c(Nc2ccccc2C)n1 | > 50 µM (inactive)
59 | COCCn1c(=NC(=O)c2ccc3c(c2)OCO3)c(C#N)cc2c(=O)n3cccc(C)c3nc21 | > 50 µM (inactive)
60 | Cc1ccc(Nc2cc(C)nn2-c2nc(C)cc(C)n2)cc1 | > 50 µM (inactive)
61 | CC(=O)c1cc(C#N)c(N2CC(C)OC(C)C2)nc1C (stereo not given) | > 50 µM (inactive)
62 | CCC(C)OC(=O)C[N+](C)(C)CCOC1CC2CCC1(C)C2(C)C (stereo not given) | > 50 µM (inactive)
63 | Nc1ccc(C2(c3ccc(N)cc3)CN3CCC2CC3)cc1 | > 50 µM (inactive)
64 | Cc1cc(C)c[n+](-c2nc3ccccc3nc2[N-]S(=O)(=O)c2ccc(Br)s2)c1 | 3.68 µM
65 | O=C(O)c1cn(Cc2cccnc2)c(=O)c2ccccc12 | > 50 µM (inactive)
66 | Cc1c(O)c(CN2CCCCC2)cc2c3c(c(=O)oc12)CCC3 | 9.04 µM
67 | COc1ccc(-n2c(N)c(C(=O)NCc3ccco3)c3nc4ccccc4nc32)c(OC)c1 | 21.9 µM
68 | Nc1c(C(=O)NCc2ccccc2)c2nc3ccccc3nc2n1-c1ccc2c(c1)OCO2 | 15.2 µM
69 | O=C(/C=C/c1cccs1)Nc1ccc([N+](=O)[O-])cc1 | > 50 µM (inactive)
70 | COc1ccc2cc(C(=O)N/N=C/c3sc4ccccc4c3O)ccc2c1 | > 50 µM (inactive)
71 | CS(=O)(=O)c1nsc2nc(=O)c(/C=C3\C=Nc4ccccc43)c(N)n12 | 15.1 µM
72 | CC1(C)CNC(=O)C=C(c2ccccc2)C1 | > 50 µM (inactive)
73 | Cc1ccc2nc(N3CCN(C(=O)c4cccs4)CC3)c(C#N)cc2c1 | 17.7 µM
74 | CCOC(=O)/C(C#N)=C/c1c(N2CCN(c3ccc(OC)cc3)CC2)nc2c(C)cccn2c1=O | > 50 µM (inactive)
75 | CCN(CC)c1ccc(/C=N/NC(=O)c2c(Cl)cnn2C)c(O)c1 | 6.2 µM
